US20130225627A1, “DEXTROMETHORPHAN ANTITUSSIVE COMPOSITIONS” (Trinity Laboratories, Inc., priority 2010, published 2013)
Structures can show the parent of a compound that is named as a salt. Where two headings read alike, the source gives them in different places.

Legend:
[1] = Solubility of dextromethorphan hydrochloride in water; conditions: at the pH of the compositions of the present invention
Excerpt: However, the compositions of the invention may contain sufficient levels of one or more cosolvents. Preferred cosolvents for this purpose include ethanol, propylene glycol, polyethylene glycol, glycerin, and sorbitol; more preferred cosolvents include ethanol, propylene glycol and glycerin.

rats [2] = tested on: rats
[3] = in vivo; cited from earlier work
females = conditions: cited from earlier work; for mean plasma bromide concentration at the end of the treatment: three menstrual cycles
[4] = rats, cited from earlier work
[5] = after oral ingestion; cited from earlier work
rats [6] = conditions: cited from earlier work
[7] = Ames test; cited from earlier work
thyroid gland = conditions: rats, diets containing 4800 or 19200 ppm NaBr; as soon as 3 days, constant during 12 weeks; cited from earlier work
healthy volunteers = conditions: cited from earlier work
rats [8] = conditions: cited from earlier work; remark: listed apart in the source
[9] = cited from earlier work

For `COc1ccc2c(c1)[C@]13CCCC[C@@H]1[C@H](C2)N(C)CC3` [Dextromethorphan hydrochloride], the solubility in water [1] was “highly soluble”.

For `Br` [Bromide], the “No Observable Adverse Effect Level (NOAEL), effects on the thyroid” value (“No Observable Adverse Effect Level” below) (rats [2]; equivalent daily dose) is given as 12 mg bromide/kg/day, the “No Observable Adverse Effect Level” value (rats [2]; expressed as bromide) is given as 240 ppm and the half life [3] is given as 9 to 12 days. The “mean plasma bromide concentration at the end of the treatment” value (females; 4 mg Br/kg/day) was 3.22 mmol/L, the “mean plasma bromide concentration at the end of the treatment” value (females; 9 mg Br/kg/day) was 7.99 mmol/L and the “quantitative analysis of the electroencephalogram (EEG)” value (females; 9 mg Br/kg/day) was “only a marginal effect”. For the same molecule, the “clinical observation: effects on the thyroid or on the central nervous system” value (females; 4 and 9 mg Br/kg/day) was “did not show effects”, the “serum thyroxine, free thyroxine, triiodothyronine, thyrotropin and thyroxine-binding globulin” value (females; 4 and 9 mg Br/kg/day) was “In none of the three groups were significant changes observed” and the half-life ([4]; chloride-free diet) was 25 days. The half-life ([4]; normal) was “three”, the “absorption in the gastrointestinal tract” value [5] was “rapidly and completely absorbed” and the “central nervous system effects” value (rats [6]; short-term toxicity studies, higher doses) was “motor incoordination of the hind legs and inhibition of grooming”. The mutagenicity [7] was “not mutagenic”.

In the case of `[Br-].[Na+]` [sodium bromide], the thyroxine concentrations (thyroid gland) is listed as “significantly decreased”, the “neurophysiological data (EEG and visual evoked response)” value (healthy volunteers; 9 mg Br/kg/day, within normal limits) is listed as “shifts in the power of various spectral bands and a shift in mean frequency” and the “medical history, physical examination, haematology, clinical chemistry and urine analyses” value (healthy volunteers; 4 or 9 mg Br/kg/day, start versus end of study) is listed as “Except for incidental nausea, no changes were observed”. The “serum free thyroxine, thyroxine-binding globulin, cortisol, oestradiol, progesterone, testosterone, thyrotropin, prolactin, LH, FSH” value (healthy volunteers; 4 or 9 mg Br/kg/day) was “No changes were observed”, the “mean plasma bromide concentration at the end of treatment” value (healthy volunteers; females, 4 mg Br/kg/day oral, three full cycles) was 3.05 mmol/L and the “mean plasma bromide concentration at the end of treatment” value (healthy volunteers; females, 9 mg Br/kg/day oral, three full cycles) was 4.93 mmol/L. The “serum thyroxine and triiodothyronine at the end of the study compared to pre-administration values” (healthy volunteers; females, 9 mg Br/kg/day, all concentrations within normal limits) was “significant increase”, the “mean plasma bromide concentration at the end of treatment” value (healthy volunteers; males, 4 mg Br/kg/day oral, 12 weeks) was 2.14 millimoles/liter and the “mean plasma bromide concentration at the end of treatment” value (healthy volunteers; males, 9 mg Br/kg/day oral, 12 weeks) was 4.30 millimoles/liter. The effects on reproduction (rats [8]; 1200 ppm) was “no effects on reproduction were observed”, the “fertility and viability of the offspring” value (rats [8]; 4800 ppm) was “reduced” and the fertility (rats [8]; 19200 ppm sodium bromide, reversible) was “complete infertility”. The “No Observable Adverse Effect Level” value (rats [6]; expressed as sodium bromide) was 300 ppm, the “levels of thyroxine, growth hormone, testosterone and corticosterone” value (rats [6]; special studies) was “decreased levels” and the “thyroid-stimulating hormone (TSH) and insulin” value (rats [6]; special studies) was “increased”.

In the case of `COc1ccc2c(c1)[C@]13CCCC[C@@H]1[C@H](C2)N(C)CC3` [Dextromethorphan Hydrobromide], the solubility ([9]; at 20° C.) is listed as “about 1.5 weight percent” and the solubility ([9]; at 85° C.) is listed as “about 25 wt. %”.
